In the NIST ThermoML archive (doi:10.1021/acs.jced.6b00293):
± gives the expanded uncertainty stated by the source.

Experiments:
[1] = Liquid, Ebulliometric method (Recirculating still)
[2] = Boiling temperature at pressure P; conditions: Liquid, Ebulliometric method (Recirculating still)

SMILES	vapor or sublimation pressure ([1]; 315.14 K)	vapor or sublimation pressure ([1]; 329.42 K)	vapor or sublimation pressure ([1]; 338.61 K)	vapor or sublimation pressure ([1]; 345.53 K)	vapor or sublimation pressure ([1]; 351.62 K)	Boiling temperature at pressure P ([2]; 20 kPa)	Boiling temperature at pressure P ([2]; 40 kPa)	Boiling temperature at pressure P ([2]; 60 kPa)	Boiling temperature at pressure P ([2]; 80 kPa)	Boiling temperature at pressure P ([2]; 101.3 kPa)
CCO [ethanol]	20 ± 1 kPa	40 ± 1 kPa	60 ± 1 kPa	80 ± 2 kPa	101.3 ± 1.8 kPa	–	–	–	–	–
C1CCCCC1 [cyclohexane]	–	–	–	–	–	34.77 ± 0.46 °C	52.32 ± 0.65 °C	63.93 ± 0.68 °C	72.94 ± 0.72 °C	80.96 ± 0.81 °C
